Data: paper PMC4721142, “Randomized controlled studies on the efficacy of antiarthritic agents in inhibiting cartilage degeneration and pain associated with progression of osteoarthritis in the rat” (Arthritis Research & Therapy, 2016)
Where “and” joins values, the source holds several entries; their conditions need not be identical. Equal entries are not always repeated.

Tests used:
MMT/MCLT rat model of OA [1] = test: MMT/MCLT trial 1 histopathology (same doses); assay type: in vivo; settings: low or only dose
Description: For MMT/MCLT rat knee joints, sections were cut in 200-μm steps; stained with toluidine blue (also with a right and left half per section); and similarly analyzed for cartilage degeneration, proteoglycan loss, collagen damage, and osteophyte formation. Results were averaged across the three sections for an overall semiquantitative score. Regional differences across the tibial plateau were taken into consideration by dividing each section into three zones delineated using an ocular micrometer (outside, middle, and inside). Scores were based on the percentage of area affected within the zone.
Cartilage degeneration in the tibia was scored on a 5-point scale as detailed in the Methods section of Additional file 1. The total extent of degeneration of the tibial plateau was measured (in micrometers) and included an analysis of cell loss, proteoglycan loss, and collagen damage. Significant cartilage degeneration reflecting any degeneration extending through more than 50 % of the cartilage thickness was also measured. Collagen damage across the medial tibial plateau (the most severely affected section of the two halves) was also quantified.
Osteophytes and femoral cartilage degeneration were analyzed as detailed in Additional file 1. Scoring of the osteophytes and categorization into small, medium, and large was performed using an ocular micrometer. The actual osteophyte measurement (tidemark to farthest distance point extending toward the synovium) was also recorded. The femoral cartilage degeneration score and the three-zone sum of the tibial cartilage degeneration scores (mean of three levels) were summed to create a total cartilage degeneration score. The mean osteophyte score for each joint was added to this value to create a total joint score. […]
Histopathology MMT/MCLT Model

MMP-13 = MMP-13 ELISA on supernatants of TNF-α-treated chondrogenic pellets; assay type: cell-based, human
MMT/MCLT rat model of OA [2] = test: MMT/MCLT trial 1 weight bearing (daily morphine 10 mg/kg, tacrolimus 0.3 or 0.6 mg/kg, fluocinolone 5 or 10 μg/kg, clonidine 100 μg/kg, alendronate 10 μg/kg i.p.; curcumin, withaferin 50 mg/kg p.o.); assay type: in vivo; settings: low or only dose
Method: Weight bearing (WB; incapacitance) was measured five times per day, once per week, using a Linton incapacitance meter (Stoelting Co., Wood Dale, IL, USA). Rats were acclimated to the meter before study initiation, and, similarly, immediately before WB, the animals were placed in the meter and allowed to acclimate for 2–5 minutes. Each hind paw was placed on a separate force plate so that the force exerted by each side could be averaged over a 5-second interval, and the mean of three readings was taken for each data point. Right paw force was compared with that on the left side for each group to confirm that animals were displaying incapacitance and/or pain behavior. Differences in force (left minus right) and right paw force as a percentage of the total force exerted by both paws were determined and compared between groups.
Following isoflurane anesthesia, the medial collateral ligament was transected just below its attachment to the meniscus in the right knee. The meniscus was cut at its narrowest point away from the ossicles so as not to damage the tibial surface and to ensure that the anterior and posterior meniscus halves were freely movable. […] In trial 2, drugs were administered IA weekly beginning 1 week following surgery. Three weeks postsurgery, animals were humanely killed and their right knees were collected for histopathology. All studies were conducted in accordance with the International Association for the Study of Pain Guidelines and were approved by the Bolder BioPATH IACUC (Boulder, CO, USA) in compliance with regulations before study initiation (IACUC protocol BBP03-006). Those running the studies were blinded to the treatments. See Additional file 1 for further details.
Isoflurane and the right knee area prepared for surgery. A skin incision was made over the medial aspect of the knee and the medial collateral ligament was exposed by blunt dissection and then transected. The medial meniscus was cut through the full thickness to simulate a complete tear and the skin was then closed with suture.
All pharmaceutical agents were prepared and stored as recommended by the supplier. Daily drug preparations were made fresh from stock solutions. […]
In Trial 2 drugs were […]
administered IA weekly beginning one week following surgery. […]
were delivered by gavage and were prepared in 0.3% Methyl Cellulose.
WB was measured five times a day, once a week, using a Linton incapacitance meter (Stoelting Co.) to assess pain behavior. Rats were acclimated to the incapacitance meter prior to study initiation.
Similarly, immediately prior to WB animals were placed in the incapacitance meter and allowed to acclimate for 2-5 minutes. Each hind paw was placed on a separate force plate so that the force exerted by each side could be averaged over a 5 second interval and the mean of three readings taken for each data point. Right paw force was compared to left for each group to confirm that animals were displaying incapacitance / pain behavior. Difference in force (left minus right) and right paw force as a percentage of the total force exerted by both paws were determined and compared between groups. Three weeks after surgery, animals were humanely euthanized and right knees collected for histopathology evaluation.
Figure 2. MMT/MCLT Trial Timeline […]
MMT/MCLT Dosing (once/day)
The study design and animal usage was approved by Bolder BioPATH’s Institutional Animal Care and Use Committee (IACUC) for compliance with regulations prior to study initiation (IACUC […]
Labs. Animals were identified by a distinct mark at the base of the tail delineating group and animal number. After randomization, all cages were labeled with protocol number, group numbers, and animal numbers with appropriate color-coding (see protocol).

## NCCCC(O)(P(=O)(O)O)P(=O)(O)O [Alendronate, Alendronate sodium]
MMT/MCLT rat model of OA [1]; mean
  Bone score: 2.75
  Femoral cartilage degeneration score: 1.79 and 1.79 ± 0.60
  Tibial cartilage degeneration score, 3-zone total: 5.83
  Tibial cartilage degeneration score, zone 1: 3.79
  Tibial cartilage degeneration score, zone 2: 2.04
  Tibial cartilage degeneration score, zone 3: 0.00
  Tibial cartilage degeneration width, significant: 650.00 µm
  Tibial cartilage degeneration width, total: 1175.00 µm
  Tibial osteophyte measure: 479.17 µm
  Tibial osteophyte score: 3.63
  Total joint score: 11.25
  Total joint score w/o femur: 9.46
MMT/MCLT rat model of OA [1]; vs saline group
  % decrease, bone score: 15%
  % decrease, femoral cartilage degeneration score: 2%
  % decrease, osteophyte measure: 7%
  % decrease, osteophyte score: 7%
  % decrease, significant degeneration width: 11%
  % decrease, tibial score 3-zone total: 11%
  % decrease, tibial score zone 1: 12%
  % decrease, tibial score zone 2: 8%
  % decrease, tibial score zone 3: 100%
  % decrease, total degeneration width: 10%
  % decrease, total joint score: 8%
  % decrease, total joint score w/o femur: 10%
MMP-13
  Effective range against MMP-13: Not effective
MMT/MCLT rat model of OA [2]; day 7
  Weight bearing, hours with significant effect: 5 h
MMT/MCLT rat model of OA [2]; day 14
  Weight bearing, hours with significant effect: 1 h
